SMILES strings stand for the structures. Where a name gives a salt, the structure may show the parent alone. Read-outs that look alike come from different tables or passages of the source.

Series [1] has as its target T1, human histamine-H3 receptor (Homo sapiens, UniProt Q9Y5N1).
T1 construct: expressed in transfected cells; host or cells: HEK293 and CHO-K1 (membrane specimen)
Nature of the series: Histamine analogue-binding inhibition test. Particulars: 50% inhibitory concentration to specific [3H]N-α-methylhistamine binding; membrane specimen of cells expressing histamine-H3 receptor; 25° C., 2 hours. The source says:
A cDNA sequence coding for a human histamine-H3 receptor (see WO00/39164) was cloned with expression vectors pCR2.1, pEF1x (by Invitrogen) and pCI-neo (by Promega). The resulting expression vector was transfected into host cells, HEK293 and CHO-K1 (American Type Culture Collection), according to a cationic lipid process [see Proceedings of the National Academy of Sciences of the United States of America, Vol., 84, p. 7413 (1987)] to obtain histamine-H3 receptor expression cells.
A membrane specimen prepared from the cells having expressed a histamine-H3 receptor was incubated in an assay buffer (50 mM Tris buffer, pH 7.4) along with a test compound and 20,000 cpm [^3H]N-α-methylhistamine (by NEN) therein, at 25° C. for 2 hours, and then filtered through a glass filter GF/C. After washed with 50 mM Tris buffer (pH 7.4), the radioactivity on the glass filter was determined. The non-specific binding was determined in the presence of 10 μM thioperamide (by SIGAM), and the 50% inhibitory concentration (IC50) of the test compound to the specific N-alpha-methylhistamine binding was calculated [Molecular Pharmacology, Vol. 55, p. 1101 (1999)].

In a further series the target is T2, histamine-H3 receptor (Rattus norvegicus, UniProt Q9QYN8).
T2 construct: from tissue; host or cells: living male SD rat (brain, third ventricle administration of the agonist)
Nature of the series: Test for antagonistic effect to water-drinking action induced by histamine-H3 receptor selective agonist, R-α-methylhistamine. The class given is in vivo. Conditions: male SD rat; 30 mg/kg orally 2 hours before R-α-methylhistamine; water drunk for 1 hour. As for the experimental part: Under anesthesia with ketamine xylazine (74 and 11 mg/kg intraabdominal single administration), a brain stereotaxic device was set in the third ventricle of a male SD rat (7 to 10-week age, […]), and a chronic guide cannula (26 gauge, length 11 mm) was inserted into it and fixed with a dental resin. The position of the tip of the guide cannula is at 2.2 mm after the bregrna on the midline, and at a depth of 8 mm from the surface of the skull. After a restoration term of about 1 week, R-α-methylhistamine (0.3 μg/l μL/head, 30% propylene glycol liquid) was administered into the third ventricle. A test compound (compound of Example 3-8) suspended in an aqueous 0.5% methyl cellulose solution was orally administered to the rat before 2 hours before the R-α-methylhistamine administration; and after the R-α-methylhistamine administration, the amount of water drunk by the rat for 1 hour was measured.

A short description of series [2]: Test for brain/cerebrospinal fluid transition. The series is classed as in vivo. Particulars: SD male rat, 2 hours after the oral administration (10 mg/kg). From the text:
A test compound (compound of Example 3-8) was orally or intravenously administered to an SD male rat (7 to 10-week age, 200 to 400 g), and under anesthesia with ether for a predetermined period of time, the whole blood was collected from it through the abdominal aorta thereof using a heparin-processed syringe. Next, the head skin was cut, and a dental 30 G needle was stuck into the cervical spine to run through the subarachnoid cavity. Via a tube connected to the dental 30 G needle, from 50 to 100 μl of the cerebrospinal fluid was collected in a 1-mL syringe, and then the brain was taken out. The blood sample was centrifuged (4° C., 6000 revolutions, 10 minutes), and the resulting plasma was stirred with ethanol (containing an internal standard substance) in an amount of three times thereof added to it. The brain sample was homogenized with 2 mL of water added thereto; and a part of it was taken out and stirred with ethanol (containing an internal standard substance) in an amount of three times thereof added to it. The cerebrospinal fluid was stirred with ethanol (containing an internal standard substance) in an amount of three times thereof added to it. The above samples were left at −20° C. for 20 minutes, then centrifuged (4° C., 12,000 g, 10 minutes), and the supernatant was analyzed through LC/MS/MS. According to a relative calibration curve method, the compound concentration in the plasma, in the brain and in the cerebrospinal fluid was determined. As a result, the test compound concentration in the brain was 0.99 nmol/g, that in the cerebrospinal fluid was 0.074 μM and that in the plasma was 0.6 μM, after 2 hours after the oral administration (10 mg/kg).

T1 sequence (Q9Y5N1 whole entry): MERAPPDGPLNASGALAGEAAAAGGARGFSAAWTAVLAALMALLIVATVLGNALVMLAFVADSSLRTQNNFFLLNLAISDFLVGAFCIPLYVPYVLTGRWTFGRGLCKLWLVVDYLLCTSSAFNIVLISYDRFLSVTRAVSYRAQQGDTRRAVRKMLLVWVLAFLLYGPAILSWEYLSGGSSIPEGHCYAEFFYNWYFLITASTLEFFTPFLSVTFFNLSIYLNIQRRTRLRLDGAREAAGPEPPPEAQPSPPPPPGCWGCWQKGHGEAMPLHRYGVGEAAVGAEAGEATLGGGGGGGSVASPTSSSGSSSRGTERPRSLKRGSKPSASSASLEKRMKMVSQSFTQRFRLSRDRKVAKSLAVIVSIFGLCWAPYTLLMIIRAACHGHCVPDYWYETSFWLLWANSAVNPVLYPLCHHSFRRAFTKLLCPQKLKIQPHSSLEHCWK
T2 sequence (Q9QYN8 whole entry): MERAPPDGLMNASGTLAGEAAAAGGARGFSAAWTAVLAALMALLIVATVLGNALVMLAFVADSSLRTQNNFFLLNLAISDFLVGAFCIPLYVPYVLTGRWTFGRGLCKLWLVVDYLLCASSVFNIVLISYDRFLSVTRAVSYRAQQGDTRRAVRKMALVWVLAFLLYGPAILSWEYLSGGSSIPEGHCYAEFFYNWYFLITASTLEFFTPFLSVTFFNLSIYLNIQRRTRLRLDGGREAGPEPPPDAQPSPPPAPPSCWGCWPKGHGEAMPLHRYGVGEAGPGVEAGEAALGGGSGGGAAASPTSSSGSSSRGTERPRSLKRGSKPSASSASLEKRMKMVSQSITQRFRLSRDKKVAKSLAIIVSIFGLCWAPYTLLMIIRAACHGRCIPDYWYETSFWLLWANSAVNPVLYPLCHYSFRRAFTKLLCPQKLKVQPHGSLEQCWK

In series [1], `C[C@@H]1CCCN1CCCOc1ccc(N2CCC3(CC2)CN(c2ccc(S(C)(=O)=O)cc2)C(=O)CO3)cc1` [Example 3-79, 9-(4-{3-[(2R)-2-methylpyrrolidin-1-yl]propoxy}phenyl)-4-[4-(methylsulfonyl)phenyl]-1-oxa-4,9-diazaspiro[5,5]undecan-3-one] showed a half-maximal inhibitory concentration (IC50) of 0.19 nM. This lies in the sub-nanomolar range. Turning to `O=C1COC2(CCN(c3ccc(OC4CCN(C5CCC5)CC4)nc3)CC2)CN1c1cccnc1` [Example 3-150, 9-{6-[(1-cyclobutylpiperidin-4-yl)oxy]pyridin-3-yl}-4-pyridin-3-yl-1-oxa-4,9-diazaspiro[5,5]undecan-3-one], the IC50 in series [1] worked out at 0.66 nM. As for `O=C1COC2(CCN(c3ccc(OCCCN4CCCCC4)cc3)CC2)CN1c1ccccc1` [Example 3-8, 4-phenyl-9-[4-(3-piperidin-1-ylpropoxy)phenyl]-1-oxa-4,9-diazaspiro[5,5]undecan-3-one], the IC50 in series [1] stood at 4.2 nM. The “increase in the water drinking induced by the administration of R-α-methylhistamine in the third ventricle” value on histamine-H3 receptor was “significantly inhibited”. For the same compound, the “test compound concentration in the brain” value in series [2] turned out to be 0.99 nmol/g. Also, the concentration at 2 h is 74 nM in series [2] (cerebrospinal fluid, read-out: test compound concentration in the cerebrospinal fluid) and 600 nM in series [2] (plasma, read-out: test compound concentration in the plasma). `C[C@H]1CCCN(CCCOc2ccc(N3CCC4(CC3)CN(C3CCCC3)C(=O)CO4)cc2)C1` [Example 4-17, 4-cyclopentyl-9-(4-{3-[(3S)-3-methylpiperidin-1-yl]propoxy}phenyl)-1-oxa-4,9-diazaspiro[5,5]undecan-3-one] displayed an IC50 in series [1] of 1.2 nM. In the case of `COc1ccc(N2CC3(CCN(c4ccc(OC5CCN(C6CCC6)CC5)cc4)CC3)OC2=O)cn1` [Example 3-168, 8-{4-[(1-cyclobutylpiperidin-4-yl)oxy]phenyl}-3-(6-methoxypyridin-3-yl)-1-oxa-3,8-diazaspiro[4,5]decan-2-one], the IC50 in series [1] is 0.09 nM. On the same count and under the same terms, next, `O=C1OC2(CCN(c3ccc(OCCCN4CCCCC4)cc3)CC2)CN1c1ccncc1` [Example 3-42, 8-[4-(3-piperidin-1-ylpropoxy)phenyl]-3-(pyridin-4-yl)-1-oxa-3,8-diazaspiro[4,5]decan-2-one]: 0.94 nM; `COc1ncc(N2CC3(CCN(c4ccc(OCCCN5CCCCC5)cc4)CC3)OCC2=O)cn1` [Example 3-15, 4-(2-methoxypyrimidin-5-yl)-9-[4-(3-piperidin-1-ylpropoxy)phenyl]-1-oxa-4,9-diazaspiro[5,5]undecan-3-one]: 0.22 nM. The same measure, in the same setting: the result for `C[C@H]1CCCN1CCCOc1ccc(N2CCC3(CC2)CN(c2cnn(C)c2)C(=O)CO3)cc1` [Example 3-95, 4-(1-methyl-1H-pyrazol-4-yl)-9-(4-{3-[(2S)-2-methylpyrrolidin-1-yl]propoxy}phenyl)-1-oxa-4,9-diazaspiro[5,5]undecan-3-one] reads 1.2 nM; that for `CCN1CC2(CCN(c3ccc(OCCCN4CCC[C@H]4C)cc3)CC2)OC1=O` [Example 3-96, 3-ethyl-8-(4-{3-[(2R)-2-methylpyrrolidin-1-yl]propoxy}phenyl)-1-oxa-3,8-diazaspiro[4,5]decan-2-one], 0.41 nM; that for `COc1ccc(N2CC3(CCN(c4ccc(OC5CCN(C6CCC6)CC5)cc4)CC3)OCC2=O)cc1` [Example 3-107, 9-{4-[(1-cyclobutylpiperidin-4-yl)oxy]phenyl}-4-(4-methoxyphenyl)-1-oxa-4,9-diazaspiro[5,5]undecan-3-one], 0.18 nM. On the same count and under the same terms, the result for `COc1ccc(C2(O)CCN(c3ccc(OCCCN4CCCCC4)cc3)CC2)cc1` [Example 2-6, 4-(4-methoxyphenyl)-1-[4-(3-piperidin-1-ylpropoxy)phenyl]piperidin-4-ol trifluoroacetate] reads 3 nM; that for `CC(C)N1CCC(Oc2ccc(N3CCC4(CC3)CN(c3cnccn3)C(=O)CO4)cc2)CC1` [Example 3-138, 9-{4-[(1-isopropylpiperidin-4-yl)oxy]phenyl}-4-pyrazin-2-yl-1-oxa-4,9-diazaspiro[5,5]undecan-3-one], 1.08 nM.

The values above are taken from patent US8138206B2, “Piperidine derivative” (MSD. K.K., priority 2005, dated 2012).
